# How the values were obtained:
# Format in all cases: in vivo
# [1] = tested on: corn (Zea mays); assay: Test A postemergence, corn; conditions: Postemergence, 0 to 100 scale (0 no effect, 100 complete control); for Corn plant response rating: visual injury vs untreated controls after approx. 10 days
# Summary of the method: (§1)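 Seeds are sown in loam mixed with sand and sprayed on the soil surface right after planting for the preemergence test. Postemergence pots are sprayed once seedlings reach 2 to 10 cm at the one- to two-leaf stage. The same surfactant-containing, non-phytotoxic solvent formulation serves both.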
# [2] = tested on: wheat (Triticum aestivum); assay: Test A postemergence, wheat; conditions: Postemergence, 0 to 100 scale (0 no effect, 100 complete control); for Wheat plant response rating: visual injury vs untreated controls after approx. 10 days
# Summary of the method: (§2)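 Postemergence ratings come from foliar sprays onto one- to two-leaf plants of 2 to 10 cm grown in loam/sand; preemergence ratings come from a directed spray onto the soil of newly seeded pots. Formulation was a surfactant-containing non-phytotoxic solvent blend.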
# [3] = tested on: ragweed (common ragweed, Ambrosia artemisiifolia); assay: Test A preemergence, ragweed; conditions: Preemergence; for Plant response rating, Ragweed: 0 to 100 scale (0 no effect, 100 complete control); for Ragweed plant response rating: visual injury on 0 to 100 scale (0 no effect, 100 complete control), approximately 10 days
# Summary of the method: as §1
# [4] = tested on: galium (catchweed bedstraw, Galium aparine); assay: Test A postemergence, galium; conditions: Postemergence, 0 to 100 scale (0 no effect, 100 complete control); for Galium plant response rating: visual injury vs untreated controls after approx. 10 days
# Summary of the method: as §2
# [5] = tested on: pigweed (Amaranthus retroflexus); assay: Test A preemergence, pigweed; conditions: for Plant response rating, Pigweed: 0 to 100 scale (0 no effect, 100 complete control); for Pigweed plant response rating: visual injury on 0 to 100 scale (0 no effect, 100 complete control), approximately 10 days
# Summary of the method: as §2
# [6] = tested on: pigweed (Amaranthus retroflexus); assay: Test A postemergence, pigweed; conditions: Postemergence, 0 to 100 scale (0 no effect, 100 complete control); for Pigweed plant response rating: visual injury vs untreated controls after approx. 10 days
# Summary of the method: as §1
# [7] = tested on: Foxtail, Giant (giant foxtail, Setaria faberi); assay: Test A preemergence, Foxtail, Giant; conditions: Preemergence; for Plant response rating, Foxtail, Giant: 0 to 100 scale (0 no effect, 100 complete control); for Foxtail, Giant plant response rating: visual injury on 0 to 100 scale (0 no effect, 100 complete control), approximately 10 days
# Summary of the method: as §1
# [8] = tested on: Ryegrass, Italian (Italian ryegrass, Lolium multiflorum); assay: Test A postemergence, Ryegrass, Italian; conditions: Postemergence, 0 to 100 scale (0 no effect, 100 complete control); for Ryegrass, Italian plant response rating: visual injury vs untreated controls after approx. 10 days
# Summary of the method: as §1
# [9] = tested on: ragweed (common ragweed, Ambrosia artemisiifolia); assay: Test A postemergence, ragweed; conditions: Postemergence, 0 to 100 scale (0 no effect, 100 complete control); for Ragweed plant response rating: visual injury vs untreated controls after approx. 10 days
# Summary of the method: as §1
# [10] = tested on: barnyardgrass (Echinochloa crus-galli); assay: Test A preemergence, barnyardgrass; conditions: Preemergence; for Plant response rating, Barnyardgrass: 0 to 100 scale (0 no effect, 100 complete control); for Barnyardgrass plant response rating: visual injury on 0 to 100 scale (0 no effect, 100 complete control), approximately 10 days
# Summary of the method: as §1
# [11] = tested on: Foxtail, Giant (giant foxtail, Setaria faberi); assay: Test A postemergence, Foxtail, Giant; conditions: Postemergence, 0 to 100 scale (0 no effect, 100 complete control); for Foxtail, Giant plant response rating: visual injury vs untreated controls after approx. 10 days
# Summary of the method: as §1
# [12] = tested on: kochia (Bassia scoparia); assay: Test A preemergence, kochia; conditions: Preemergence; for Plant response rating, Kochia: 0 to 100 scale (0 no effect, 100 complete control); for Kochia plant response rating: visual injury on 0 to 100 scale (0 no effect, 100 complete control), approximately 10 days
# Summary of the method: as §1
# [13] = tested on: Ryegrass, Italian (Italian ryegrass, Lolium multiflorum); assay: Test A preemergence, Ryegrass, Italian; conditions: Preemergence; for Plant response rating, Ryegrass, Italian: 0 to 100 scale (0 no effect, 100 complete control); for Ryegrass, Italian plant response rating: visual injury on 0 to 100 scale (0 no effect, 100 complete control), approximately 10 days
# Summary of the method: as §1
# [14] = tested on: kochia (Bassia scoparia); assay: Test A postemergence, kochia; conditions: Postemergence, 0 to 100 scale (0 no effect, 100 complete control); for Kochia plant response rating: visual injury vs untreated controls after approx. 10 days
# Summary of the method: as §1
# [15] = tested on: barnyardgrass (Echinochloa crus-galli); assay: Test A postemergence, barnyardgrass; conditions: Postemergence, 0 to 100 scale (0 no effect, 100 complete control); for Barnyardgrass plant response rating: visual injury vs untreated controls after approx. 10 days
# Summary of the method: as §2
# [16] = tested on: blackgrass (Alopecurus myosuroides); assay: Test A postemergence, blackgrass; conditions: Postemergence, 0 to 100 scale (0 no effect, 100 complete control); for Blackgrass plant response rating: visual injury vs untreated controls after approx. 10 days
# Summary of the method: as §1
# [17] = 125 g ai/ha, visual injury, approx. 10 days
# [18] = 125 g ai/ha, visual injury approx. 10 days
# [19] = 500 g ai/ha, visual injury approx. 10 days
structure (smiles),measurement,setting,value
CC(=O)N(c1cc(C2=NOC3(CCCC3)C2)c(C)cc1C)S(=O)(=O)C(F)(F)F [Compound 220],"Plant response rating, Corn",[1]; 125 g ai/ha,0
same,Corn plant response rating,[1]; 500 g ai/ha,30
same,"Plant response rating, Wheat",[2]; 125 g ai/ha,20
same,Wheat plant response rating,[2]; 500 g ai/ha,60
same,"Plant response rating, Ragweed",[3]; [17],30
same,"Plant response rating, Ragweed",[3]; 500 g ai/ha,60
same,"Plant response rating, Galium",[4]; 125 g ai/ha,60
same,Galium plant response rating,[4]; 500 g ai/ha,80
same,"Plant response rating, Pigweed",[5]; [17],70
same,"Plant response rating, Pigweed",[5]; 500 g ai/ha,100
same,"Plant response rating, Pigweed",[6]; 125 g ai/ha,0
same,Pigweed plant response rating,[6]; 500 g ai/ha,70
same,"Plant response rating, Foxtail, Giant",[7]; [17],100
same,"Plant response rating, Foxtail, Giant",[7]; 500 g ai/ha,100
same,"Plant response rating, Ryegrass, Italian",[8]; 125 g ai/ha,0
same,"Ryegrass, Italian plant response rating",[8]; 500 g ai/ha,20
same,"Plant response rating, Ragweed",[9]; 125 g ai/ha,0
same,Ragweed plant response rating,[9]; 500 g ai/ha,40
same,"Plant response rating, Barnyardgrass",[10]; [17],100
same,"Plant response rating, Barnyardgrass",[10]; 500 g ai/ha,100
same,"Plant response rating, Foxtail, Giant",[11]; 125 g ai/ha,0
same,"Foxtail, Giant plant response rating",[11]; 500 g ai/ha,50
same,"Plant response rating, Kochia",[12]; [17],20
same,"Plant response rating, Kochia",[12]; 500 g ai/ha,70
same,"Plant response rating, Ryegrass, Italian",[13]; [17],100
same,"Plant response rating, Ryegrass, Italian",[13]; 500 g ai/ha,100
same,"Plant response rating, Kochia",[14]; 125 g ai/ha,20
same,Kochia plant response rating,[14]; 500 g ai/ha,60
same,"Plant response rating, Barnyardgrass",[15]; 125 g ai/ha,20
same,Barnyardgrass plant response rating,[15]; 500 g ai/ha,70
same,"Plant response rating, Blackgrass",[16]; 125 g ai/ha,0
same,Blackgrass plant response rating,[16]; 500 g ai/ha,30
Cc1ccc(=O)n(-c2cc(NS(=O)(=O)C(F)(F)F)c(C)cc2C)n1 [Compound 85],"Plant response rating, Corn",[1]; [18],0
same,Corn plant response rating,[1]; 500 g ai/ha,0
same,"Plant response rating, Wheat",[2]; [18],0
same,Wheat plant response rating,[2]; 500 g ai/ha,0
same,Ragweed plant response rating,[3]; 125 g ai/ha,0
same,"Plant response rating, Ragweed",[3]; 500 g ai/ha,0
same,"Plant response rating, Galium",[4]; [18],60
same,Galium plant response rating,[4]; 500 g ai/ha,0
same,Pigweed plant response rating,[5]; 125 g ai/ha,100
same,"Plant response rating, Pigweed",[5]; 500 g ai/ha,100
same,"Plant response rating, Pigweed",[6]; [18],20
same,Pigweed plant response rating,[6]; 500 g ai/ha,40
same,"Foxtail, Giant plant response rating",[7]; 125 g ai/ha,10
same,"Plant response rating, Foxtail, Giant",[7]; 500 g ai/ha,90
same,"Plant response rating, Ryegrass, Italian",[8]; [18],40
same,"Ryegrass, Italian plant response rating",[8]; 500 g ai/ha,30
same,"Plant response rating, Ragweed",[9]; [18],20
same,Ragweed plant response rating,[9]; 500 g ai/ha,30
same,Barnyardgrass plant response rating,[10]; 125 g ai/ha,70
same,"Plant response rating, Barnyardgrass",[10]; 500 g ai/ha,70
same,"Plant response rating, Foxtail, Giant",[11]; [18],0
same,"Foxtail, Giant plant response rating",[11]; 500 g ai/ha,0
same,Kochia plant response rating,[12]; 125 g ai/ha,60
same,"Plant response rating, Kochia",[12]; 500 g ai/ha,70
same,"Ryegrass, Italian plant response rating",[13]; 125 g ai/ha,0
same,"Plant response rating, Ryegrass, Italian",[13]; 500 g ai/ha,30
same,"Plant response rating, Kochia",[14]; [18],0
same,Kochia plant response rating,[14]; 500 g ai/ha,0
same,"Plant response rating, Barnyardgrass",[15]; [18],30
same,Barnyardgrass plant response rating,[15]; 500 g ai/ha,20
same,"Plant response rating, Blackgrass",[16]; [18],0
same,Blackgrass plant response rating,[16]; 500 g ai/ha,0
Cc1cc(Cl)c(C(=O)N2CCCCC2)cc1NS(=O)(=O)C(F)(F)F [Compound 252],"Plant response rating, Corn",[1]; 125 g ai/ha,10
same,"Plant response rating, Corn",[1]; [19],0
same,"Plant response rating, Wheat",[2]; 125 g ai/ha,0
same,"Plant response rating, Wheat",[2]; [19],40
same,"Plant response rating, Ragweed",[3]; [17],80
same,Ragweed plant response rating,[3]; 500 g ai/ha,90
same,"Plant response rating, Galium",[4]; 125 g ai/ha,80
same,"Plant response rating, Galium",[4]; [19],80
same,"Plant response rating, Pigweed",[5]; [17],100
same,Pigweed plant response rating,[5]; 500 g ai/ha,100
same,"Plant response rating, Pigweed",[6]; 125 g ai/ha,70
same,"Plant response rating, Pigweed",[6]; [19],80
same,"Plant response rating, Foxtail, Giant",[7]; [17],100
same,"Foxtail, Giant plant response rating",[7]; 500 g ai/ha,100
same,"Plant response rating, Ryegrass, Italian",[8]; 125 g ai/ha,30
same,"Plant response rating, Ryegrass, Italian",[8]; [19],70
same,"Plant response rating, Ragweed",[9]; 125 g ai/ha,10
same,"Plant response rating, Ragweed",[9]; [19],90
same,"Plant response rating, Barnyardgrass",[10]; [17],40
same,Barnyardgrass plant response rating,[10]; 500 g ai/ha,100
same,"Plant response rating, Foxtail, Giant",[11]; 125 g ai/ha,0
same,"Plant response rating, Foxtail, Giant",[11]; [19],40
same,"Plant response rating, Kochia",[12]; [17],60
same,Kochia plant response rating,[12]; 500 g ai/ha,80
same,"Plant response rating, Ryegrass, Italian",[13]; [17],60
same,"Ryegrass, Italian plant response rating",[13]; 500 g ai/ha,100
same,"Plant response rating, Kochia",[14]; 125 g ai/ha,30
same,"Plant response rating, Kochia",[14]; [19],60
same,"Plant response rating, Barnyardgrass",[15]; 125 g ai/ha,0
same,"Plant response rating, Barnyardgrass",[15]; [19],30
same,"Plant response rating, Blackgrass",[16]; 125 g ai/ha,0
same,"Plant response rating, Blackgrass",[16]; [19],0
Cc1cc(C)c(C2=NOC3(CCC4(CC3)OCCO4)C2)cc1NS(=O)(=O)C(F)(F)F [Compound 135],"Plant response rating, Corn",[1]; [18],0
same,Corn plant response rating,[1]; 500 g ai/ha,80
same,"Plant response rating, Wheat",[2]; 125 g ai/ha,0
same,Wheat plant response rating,[2]; 500 g ai/ha,70
same,Ragweed plant response rating,[3]; 125 g ai/ha,10
same,"Plant response rating, Ragweed",[3]; 500 g ai/ha,80
same,"Plant response rating, Galium",[4]; [18],90
same,Galium plant response rating,[4]; 500 g ai/ha,90
same,Pigweed plant response rating,[5]; 125 g ai/ha,60
same,"Plant response rating, Pigweed",[5]; 500 g ai/ha,100
same,"Plant response rating, Pigweed",[6]; 125 g ai/ha,80
same,Pigweed plant response rating,[6]; 500 g ai/ha,70
same,"Foxtail, Giant plant response rating",[7]; 125 g ai/ha,100
same,"Plant response rating, Foxtail, Giant",[7]; 500 g ai/ha,100
same,"Plant response rating, Ryegrass, Italian",[8]; 125 g ai/ha,0
same,"Ryegrass, Italian plant response rating",[8]; 500 g ai/ha,80
same,"Plant response rating, Ragweed",[9]; 125 g ai/ha,20
same,Ragweed plant response rating,[9]; 500 g ai/ha,80
same,Barnyardgrass plant response rating,[10]; 125 g ai/ha,100
same,"Plant response rating, Barnyardgrass",[10]; 500 g ai/ha,100
same,"Plant response rating, Foxtail, Giant",[11]; [18],90
same,"Foxtail, Giant plant response rating",[11]; 500 g ai/ha,90
same,Kochia plant response rating,[12]; 125 g ai/ha,80
same,"Plant response rating, Kochia",[12]; 500 g ai/ha,100
same,"Ryegrass, Italian plant response rating",[13]; 125 g ai/ha,100
same,"Plant response rating, Ryegrass, Italian",[13]; 500 g ai/ha,100
same,"Plant response rating, Kochia",[14]; [18],50
same,Kochia plant response rating,[14]; 500 g ai/ha,70
same,"Plant response rating, Barnyardgrass",[15]; [18],80
same,Barnyardgrass plant response rating,[15]; 500 g ai/ha,90
same,"Plant response rating, Blackgrass",[16]; [18],20
same,Blackgrass plant response rating,[16]; 500 g ai/ha,60

# Reference: patent publication US20230278972A1, “SUBSTITUTED HALOALKYL SULFONANILIDE HERBICIDES” (FMC Corporation, priority 2020, published 2023)
